For data set [1], the system named is Rattus norvegicus. Kind of data set: Inhibitory activity against the pressor response induced by Angiotensin II (AII) in conscious rats, at 1 mg/kg p.o. at 3h. Type of data set: functional. To be noted: route oral.
Data set [2] addresses T1, Type-1 angiotensin II receptor (Bos taurus, UniProt P25104).
T1 sequence (P25104 whole entry): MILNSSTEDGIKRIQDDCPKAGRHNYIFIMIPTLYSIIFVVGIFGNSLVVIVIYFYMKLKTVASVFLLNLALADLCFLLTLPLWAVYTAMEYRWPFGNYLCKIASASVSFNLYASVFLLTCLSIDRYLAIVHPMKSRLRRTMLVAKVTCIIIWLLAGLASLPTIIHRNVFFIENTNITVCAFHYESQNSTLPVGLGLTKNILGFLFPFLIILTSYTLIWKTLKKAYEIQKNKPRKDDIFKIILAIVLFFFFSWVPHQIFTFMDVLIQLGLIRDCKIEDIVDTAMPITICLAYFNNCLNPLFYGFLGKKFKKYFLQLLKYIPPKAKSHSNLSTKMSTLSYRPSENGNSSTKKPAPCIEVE
Nature of the data set: Displacement of [125 I]-AII (0.2 nM) from bovine adrenal cortical membrane angiotensin II (AII) receptor at 10e-7 M.

Data set [3] has as its system Rattus norvegicus. Nature of the data set: Inhibitory activity against the pressor response induced by Angiotensin II (AII) in conscious rats, at 1 mg/kg p.o. at 7 hr. Type of data set: functional. To be noted: route oral.
The subject of data set [4] is Rattus norvegicus. Nature of the data set: Dose-dependent reduction of blood pressure in spontaneously hypertensive rats administered orally (antihypertensive effect). The class given is functional. To be noted: po.
The species named for data set [5] is Rattus norvegicus. Nature of the data set: pD2 value of compound was determined. Type of data set: functional.
Data set [6] has as its system Rattus norvegicus. Nature of the data set: Inhibitory activity against the pressor response induced by angiotensin II (AII) in conscious rats, at 1 mg/kg p.o. at 7 hr. The conditions noted are these: route oral. The class given is functional.
The test system of data set [7] is Rattus norvegicus. Kind of data set: Inhibitory activity against the pressor response induced by angiotensin II (AII) in conscious rats, at 1 mg/kg p.o. at 3h. Type of data set: functional. The conditions noted are these: route oral.
The nature of data set [8]: Partition coefficient (logP). The class given is physicochemical. To be noted: octanol/water.
Data set [9] concerns Rattus norvegicus. Kind of data set: Tested for dose-dependent inhibition of Angiotensin II (AII)-induced pressor response at more than 0.01 mg/kg, p.o. To be noted: route oral, read-out: ID50 (the source's name). The class given is functional.
Data set [10] in a line: Percent oral bioavailability examined in rats. Type of data set: ADME, organism-based. The conditions noted are these: rat, in vivo.

For orientation: inhibition in vivo means the relative decrease from the control value, in per cent. A word on the IC50: it is the midpoint of a concentration-inhibition curve. A low value points to greater potency. What is called logP is the decadic logarithm of the partition coefficient of the neutral form, usually between octanol and water. Read a high logP as a more lipophilic compound. In general, bioavailability refers to the share of a dose that reaches the circulation, judged against a reference dose that is usually intravenous. Lower therefore signals poor availability.

For the molecule `CCNc1nc2cccc(C(=O)O)c2n1Cc1ccc(-c2ccccc2-c2noc(O)n2)cc1`, the inhibition in vivo at 1 mg/kg was determined as 25% in the data set with Rattus norvegicus [1] and 6% with Rattus norvegicus [3]. In data set [2], this molecule had an IC50 of 42 nM.

Turning to `CCCc1nc2cccc(C(=O)O)c2n1Cc1ccc(-c2ccccc2-c2noc(O)n2)cc1`, the results for the inhibition in vivo at 1 mg/kg in the data set with Rattus norvegicus [1] and in the data set with Rattus norvegicus [3] were 100% and 88%, respectively. In data set [2], this molecule showed an IC50 of 420 nM.

Consider `CCCOc1nc2cccc(C(=O)O)c2n1Cc1ccc(-c2ccccc2-c2noc(O)n2)cc1`, for which the inhibition in vivo at 1 mg/kg with Rattus norvegicus [1] and in the data set with Rattus norvegicus [3] was 100% in each case. In addition, the IC50 in [2] is 790 nM.

As for `CCCSc1nc2cccc(C(=O)O)c2n1Cc1ccc(-c2ccccc2-c2noc(O)n2)cc1`, the figures for the inhibition in vivo at 1 mg/kg in the data set with Rattus norvegicus [1] and in the data set on Rattus norvegicus [3] were 80% and 100%, respectively. This molecule also came in with an IC50 in data set [2] of 850 nM.

Regarding `CNc1nc2cccc(C(=O)O)c2n1Cc1ccc(-c2ccccc2-c2noc(O)n2)cc1`, the results for the inhibition in vivo at 1 mg/kg in the data set on Rattus norvegicus [1] and in the data set on Rattus norvegicus [3] were 14% and 13%, respectively. Moreover, the IC50 in data set [2] came out at 260 nM.

On to `CCOc1nc2cccc(C(=O)OC(C)OC(=O)OC3CCCCC3)c2n1Cc1ccc(-c2ccccc2-c2nn[nH]n2)cc1` (stereo not given) [CANDESARTAN CILEXETIL], for which the ED25 with Rattus norvegicus [4] was found to be 0.68 mg/kg.

Take `CCSc1nc2cccc(C(=O)O)c2n1Cc1ccc(-c2ccccc2-c2noc(O)n2)cc1`: the figures for the inhibition in vivo at 1 mg/kg in the data set on Rattus norvegicus [1] and in the data set on Rattus norvegicus [3] were 83% and 100%, respectively. In [2], this molecule came in with an IC50 of 480 nM.

In the data set filed under Rattus norvegicus [5], `CCOc1nc2cccc(C(=O)O)c2n1Cc1ccc(-c2ccccc2-c2nnn[nH]2)cc1` [CANDESARTAN] returned a pD2 of 9.97. The results for the inhibition in vivo at 1 mg/kg in the data set on Rattus norvegicus [6] and in the data set on Rattus norvegicus [7] were 92% and 100%, respectively. Further, the log partition coefficient (logP) in data set [8] was 0.32.

Turning to `CCCCc1nc(Cl)c(CO)n1Cc1ccc(-c2ccccc2-c2nnn[nH]2)cc1` [LOSARTAN], the inhibition in vivo at 1 mg/kg in the data set on Rattus norvegicus [6] is 34%; with Rattus norvegicus [7], 21%.

As for `CCOc1nc2cccc(C(=O)O)c2n1Cc1ccc(-c2ccccc2-c2noc(=O)[nH]2)cc1` [AZILSARTAN], the inhibition in vivo at 1 mg/kg with Rattus norvegicus [1] and in the data set with Rattus norvegicus [3] was 100% each time. The molecule further showed a pD2 in the data set listed under Rattus norvegicus [5] of 9.93. Further, the ED50 in the data set on Rattus norvegicus [9] worked out at 0.06 mg/kg. Moreover, in [2], the IC50 turned out to be 420 nM. Moreover, in the data set on Rattus norvegicus [4], the ED25 was found to be 0.4 mg/kg. For the same molecule, the logP in data set [8] was determined as 0.9. For the same molecule, the bioavailability in [10] turned out to be 20%.

Turning to `CCCCc1nc2cccc(C(=O)O)c2n1Cc1ccc(-c2ccccc2-c2noc(O)n2)cc1`, the inhibition in vivo at 1 mg/kg was 68% in the data set on Rattus norvegicus [1] and 64% in the data set with Rattus norvegicus [3]. In [2], this molecule had an IC50 of 620 nM.

With `CCc1nc2cccc(C(=O)O)c2n1Cc1ccc(-c2ccccc2-c2noc(O)n2)cc1`, the inhibition in vivo at 1 mg/kg is 88% with Rattus norvegicus [1] and 67% in the data set with Rattus norvegicus [6]. In [2], this molecule displayed a half-inhibitory concentration (IC50) of 310 nM.

On to `CSc1nc2cccc(C(=O)O)c2n1Cc1ccc(-c2ccccc2-c2noc(O)n2)cc1`, for which the inhibition in vivo at 1 mg/kg in the data set on Rattus norvegicus [1] and in the data set with Rattus norvegicus [3] was 100% in each case. This molecule also yielded an IC50 in [2] of 390 nM.

In the case of `COc1nc2cccc(C(=O)O)c2n1Cc1ccc(-c2ccccc2-c2noc(O)n2)cc1`, the inhibition in vivo at 1 mg/kg in the data set with Rattus norvegicus [1] is 90%; with Rattus norvegicus [3], 88%. Further, in [2], the IC50 was 360 nM.

Values taken from ChEMBL document CHEMBL1150512, “A new class of angiotensin II receptor antagonists with a novel acidic bioisostere” (Bioorg Med Chem Lett, 1995).
